Data published in patent US6537948B1, “Uracil compounds and use thereof” (Sumitomo Chemical Company, Limited, priority 2000, dated 2003).
Values belong to the compound of their own block, whether it stands above or below them.

Legend:
[1] = test system: ivyleaf morningglory (Ipomoea hederacea); assay: Test Example 1: foliar treatment of field; format: in vivo; conditions: foliar spray, dosage 125 g/ha, 16 days after application
Protocol: (§1) A cylindrical plastic pot having a diameter of 10 cm and a depth of 10 cm was filled with soil and then seeded with ivyleaf morningglory (Ipomoea hederacea) and velvetleaf (Abutilon theophrasti). These test plants were grown in a greenhouse for 10 days. Then, each of compounds 1-2, 1-42, 1-45, 1-48, 2-2, 2-7, 2-42, 2-45, 3-2, 3-12, 4-7, 4-85, 5-12-R, 5-12-S, 5-17, 6-2, 7-2, 7-6, 7-8, 7-12, 7-48, 7-50, 7-84, 7-118, 7-119, 7-125, 9-7, 9-27 and 9-45 was formulated into an emulsifiable concentrate according to Formulation Example 2 and then diluted to the prescribed amount with water containing a spreading agent and the dilution was uniformly sprayed over the foliage of the test plants with a sprayer at a rate of 1000 liters per hectare. After the application, the test plants were grown in the greenhouse for 16 days, and the herbicidal activity was determined.

[2] = test system: velvetleaf (Abutilon theophrasti); assay: Test Example 1: foliar treatment of field; format: in vivo; conditions: foliar spray, dosage 125 g/ha, 16 days after application
Protocol: as §1

[3] = test system: ivyleaf morningglory (Ipomoea hederacea); assay: Test Example 2: soil surface treatment of field; format: in vivo; conditions: soil surface spray, dosage 500 g/ha, 19 days after application
From the text: (§2) A cylindrical plastic pot having a diameter of 10 cm and a depth of 10 cm was filled with soil and then seeded with ivyleaf morningglory (Ipomoea hederacea) and velvetleaf (Abutilon theophrasti). Then, each of the compounds 1-2, 1-42, 1-48, 2-2, 2-7, 2-42, 2-45, 3-2, 3-12, 4-7, 4-85, 5-12-R, 5-12-S, 5-17, 6-2, 7-2, 7-6, 7-8, 7-12, 7-48, 7-50, 7-84, 7-118, 7-119, 7-125, 9-7, 9-27 and 9-45 was formulated into an emulsifiable concentrate according to Formulation Example 2 and then diluted to the prescribed amount with water, and the dilution was uniformly sprayed over the surface of the soil with a sprayer at a rate of 1000 liters per hectare. After the application, the test plants were grown in the greenhouse for 19 days, and the herbicidal activity was examined.

[4] = test system: velvetleaf (Abutilon theophrasti); assay: Test Example 2: soil surface treatment of field; format: in vivo; conditions: soil surface spray, dosage 500 g/ha, 19 days after application
From the text: as §2

melting point: 71.2 °C
SMILES: COC(=O)C(C)Oc1cc(OC)nc(Oc2cc(-n3c(=O)cc(C(F)(F)F)n(C)c3=O)c(F)cc2Cl)n1 (stereo not drawn) [Compound 1-42, 2-{2-chloro-4-fluoro-5-[3-methyl-2,6-dioxo-4-(trifluoromethyl)-1,2,3,6-tetrahydropyrimidin-1-yl]phenoxy}-6-methoxy-4-{1-(methoxycarbonyl)ethoxy}pyrimidine]
growth of ivyleaf morningglory (herbicidal activity) [1]: completely controlled
growth of velvetleaf (herbicidal activity) [2]: completely controlled
growth of ivyleaf morningglory (herbicidal activity) [3]: completely controlled
growth of velvetleaf (herbicidal activity) [4]: completely controlled

melting point: 60.2 °C
SMILES: COC(=O)C(C)Oc1ccnc(Sc2cc(-n3c(=O)cc(C(F)(F)F)n(C)c3=O)c(F)cc2Cl)n1 (stereo not drawn) [Compound 6-2, methyl 2-([2-{2-chloro-4-fluoro-5-[3-methyl-2,6-dioxo-4-(trifluoromethyl)-1,2,3,6-tetrahydropyrimidin-1-yl]phenylthio}pyrimidin-4-yl]oxy}propionate]
growth of ivyleaf morningglory (herbicidal activity) [1]: completely controlled
growth of velvetleaf (herbicidal activity) [2]: completely controlled
growth of ivyleaf morningglory (herbicidal activity) [3]: completely controlled
growth of velvetleaf (herbicidal activity) [4]: completely controlled

melting point: 52.5 °C
SMILES: COC(=O)COc1ncncc1Oc1cc(-n2c(=O)cc(C(F)(F)F)n(C)c2=O)c(F)cc1Cl [Compound 4-7, 5-{2-chloro-4-fluoro-5-[3-methyl-2,6-dioxo-4-(trifluoromethyl)-1,2,3,6-tetrahydropyrimidin-1-yl]phenoxy}-4-(methoxycarbonyl)methoxypyrimidine]
growth of ivyleaf morningglory (herbicidal activity) [1]: completely controlled
growth of velvetleaf (herbicidal activity) [2]: completely controlled
growth of ivyleaf morningglory (herbicidal activity) [3]: completely controlled
growth of velvetleaf (herbicidal activity) [4]: completely controlled

SMILES: COC(=O)COc1ncccc1Oc1cc(-n2c(=O)cc(C(F)(F)F)n(C)c2=O)c(F)cc1[N+](=O)[O-] [Compound 9-45, 3-{4-fluoro-5-[3-methyl-2,6-dioxo-4-(trifluoromethyl)-1,2,3,6-tetrahydropyrimidin-1-yl]-2-nitrophenoxy}-2-(methoxycarbonyl)methoxypyridine]
growth of ivyleaf morningglory (herbicidal activity) [1]: completely controlled
growth of velvetleaf (herbicidal activity) [2]: completely controlled
growth of ivyleaf morningglory (herbicidal activity) [3]: completely controlled
growth of velvetleaf (herbicidal activity) [4]: completely controlled

SMILES: COC(=O)COc1nc(C)ncc1Oc1cc(-n2c(=O)cc(C(F)(F)F)n(C)c2=O)c(F)cc1Cl [Compound 4-85, 5-{2-chloro-4-fluoro-5-[3-methyl-2,6-dioxo-4-(trifluoromethyl)-1,2,3,6-tetrahydropyrimidin-1-yl]phenoxy}-4-(methoxycarbonyl)methoxy-2-methylpyrimidine]
growth of ivyleaf morningglory (herbicidal activity) [1]: completely controlled
growth of velvetleaf (herbicidal activity) [2]: completely controlled
growth of ivyleaf morningglory (herbicidal activity) [3]: completely controlled
growth of velvetleaf (herbicidal activity) [4]: completely controlled

SMILES: CONC(=O)COc1ncccc1Oc1cc(-n2c(=O)cc(C(F)(F)F)n(C)c2=O)c(F)cc1Cl [Compound 7-84, 3-{2-chloro-4-fluoro-5-[3-methyl-2,6-dioxo-4-(trifluoromethyl)-1,2,3,6-tetrahydropyrimidin-1-yl]phenoxy}-2-[(methoxyaminocarbonyl)methoxy]pyridine]
growth of ivyleaf morningglory (herbicidal activity) [1]: completely controlled
growth of velvetleaf (herbicidal activity) [2]: completely controlled
growth of ivyleaf morningglory (herbicidal activity) [3]: completely controlled
growth of velvetleaf (herbicidal activity) [4]: completely controlled

SMILES: COC(=O)COc1ncccc1Oc1cc(-n2c(=O)cc(C(F)(F)F)n(C)c2=O)c(F)cc1Br [Compound 9-7, 3-{2-bromo-4-fluoro-5-[3-methyl-2,6-dioxo-4-(trifluoromethyl)-1,2,3,6-tetrahydropyrimidin-1-yl]phenoxy}-2-(methoxycarbonyl)methoxypyridine]
growth of ivyleaf morningglory (herbicidal activity) [1]: completely controlled
growth of velvetleaf (herbicidal activity) [2]: completely controlled
growth of ivyleaf morningglory (herbicidal activity) [3]: completely controlled
growth of velvetleaf (herbicidal activity) [4]: completely controlled

SMILES: COC(=O)C(C)Oc1cc(Oc2cc(-n3c(=O)cc(C(F)(F)F)n(C)c3=O)c(F)cc2Cl)ncn1 (stereo not drawn) [Compound 3-12, methyl 2-([4-{2-chloro-4-fluoro-5-[3-methyl-2,6-dioxo-4-(trifluoromethyl)-1,2,3,6-tetrahydropyrimidin-1-yl]phenoxy}pyrimidin-6-yl]oxy)propionate]
growth of ivyleaf morningglory (herbicidal activity) [1]: completely controlled
growth of velvetleaf (herbicidal activity) [2]: completely controlled
growth of ivyleaf morningglory (herbicidal activity) [3]: completely controlled
growth of velvetleaf (herbicidal activity) [4]: completely controlled

SMILES: COC(=O)C(C)Oc1nccc(Oc2cc(-n3c(=O)cc(C(F)(F)F)n(C)c3=O)c(F)cc2Cl)n1 (stereo not drawn) [Compound 3-2, methyl 2-([4-{2-chloro-4-fluoro-5-[3-methyl-2,6-dioxo-4-(trifluoromethyl)-1,2,3,6-tetrahydropyrimidin-1-yl]phenoxy}pyrimidin-2-yl]oxy)propionate]
growth of ivyleaf morningglory (herbicidal activity) [1]: completely controlled
growth of velvetleaf (herbicidal activity) [2]: completely controlled
growth of ivyleaf morningglory (herbicidal activity) [3]: completely controlled
growth of velvetleaf (herbicidal activity) [4]: completely controlled

melting point: 62.5 °C
SMILES: COC(=O)COc1cncnc1Oc1cc(-n2c(=O)cc(C(F)(F)F)n(C)c2=O)c(F)cc1Cl [Compound 3-57, 4-{2-chloro-4-fluoro-5-[3-methyl-2,6-dioxo-4-(trifluoromethyl)-1,2,3,6-tetrahydropyrimidin-1-yl]phenoxy}-5-(methoxycarbonyl)methoxypyrimidine]

SMILES: COC(=O)C(C)Oc1cccc(Oc2cc(-n3c(=O)cc(C(F)(F)F)n(C)c3=O)c(F)cc2Cl)n1 (stereo not drawn) [Compound 2-42, 2-{2-chloro-4-fluoro-5-[3-methyl-2,6-dioxo-4-(trifluoromethyl)-1,2,3,6-tetrahydropyrimidin-1-yl]phenoxy}-6-{1-(methoxycarbonyl)ethoxy}pyridine]
growth of ivyleaf morningglory (herbicidal activity) [1]: completely controlled
growth of velvetleaf (herbicidal activity) [2]: completely controlled
growth of ivyleaf morningglory (herbicidal activity) [3]: completely controlled
growth of velvetleaf (herbicidal activity) [4]: completely controlled

SMILES: COC(=O)COc1n[nH]c(C)c1Oc1cc(-n2c(=O)cc(C(F)(F)F)n(C)c2=O)c(F)cc1Cl [Compound 5-17, 3-(methoxycarbonyl)methoxy-4-{2-chloro-4-fluoro-5-[3-methyl-2,6-dioxo-4-(trifluoromethyl)-1,2,3,6-tetrahydropyrimidin-1-yl]phenoxy}-5-methylpyrazole]
growth of ivyleaf morningglory (herbicidal activity) [1]: completely controlled
growth of velvetleaf (herbicidal activity) [2]: completely controlled
growth of ivyleaf morningglory (herbicidal activity) [3]: completely controlled
growth of velvetleaf (herbicidal activity) [4]: completely controlled
